Measurements from patent US12268727B2, “Bioactive polypeptides for improvements in plant protection, growth and productivity” (priority 2017, dated 2025).

Key:
Phakopsora pachyrhizi = test: Asian soybean rust severity and defoliation, field trials in Paraguay; assay type: in vivo; details: for defoliation: Yatytay site
squash = test: Foliar application to squash, yield; assay type: in vivo; details: Crookneck squash
Description: Formulation 2 (F2) consists of the D RI Bt.4Q7 Flg22 applied with 0.01% (wv) non-ionic surfactant. […] Yield comparisons were made between the plants treated with the foliar Bt.4Q7Flg22 F1 and F2 spray applications compared to the control (water) or non-treated squash plants. Squash plants were cultivated in sandy loam soil as follows. 2.5 cm holes were cut in 2.5 ft. (0.76 m) wide plastic covered mounds, two rows per mound, holes spaced 1.5 ft (0.46 m) apart within each row. Rows were staggered within the mound. Mounds were spaced 4 ft (1.2 m) apart. Three squash seeds were planted per hole and thinned to a single plant per hole 14 days after planting. Drip irrigation tubing was laid in the center of each mound, and plants were watered as necessary.
Squash plants were grown from seed in raised beds until bloom, and foliar treated in the same Florida (FL) location using two replicated trials or two separate harvests. Yield for the foliar Bt.4Q7Flg22 applied F1 and F2 treated plants is reported as the number of squash per plant, the weight (grams) per squash and the total squash yield (lbs/Ac) and represented as a percentage change as compared to non-treated control plants (Table 31).
Yield comparisons were made between the plants treated with the polypeptides compared to surfactant only control plants, with three replicates per treatment. […] Replicates with average yield per plant 50% above or 50% below the median yield for the trial were excluded as outliers.
Squash plants were cultivated in sandy loam soil as follows. 2.5 cm holes were cut in 0.76 meters wide plastic covered mounds, two rows per mound, holes spaced 0.46 meters apart within each row. Rows were staggered within the mound. Mounds were spaced 1.2 meters apart. Three squash seeds were planted per hole and thinned to a single plant per hole 14 days after planting. Drip irrigation tubing was laid in the center of each mound, and plants were watered as necessary.

corn = assay type: in vivo; details: 8.0 Fl. oz/Ac
peppers (Capsicum) = test: Foliar application to pepper, yield; assay type: in vivo, pepper (Capsicum)
Description: Foliar treatments of Bt.4Q7 Flg22 and Ec.Flg22 bioactive priming polypeptides were applied using small scale plots designed to simulate commercial growing conditions for peppers (Capsicum). Two varieties of pepper: Red Knight (RK) and Hungarian Hot Wax (HHW) were grown from 6-week old transplants in raised beds covered with black plastic mulch that had good water-holding characteristics and a pH of 5.8-6.6. Plants were grown using drip irrigation and fertilizer applied following grower guidelines throughout the growing season to ensure optimum plant growth and yields. Small raised bed plots were designed to simulate the planting densities used by commercial growers that generally plant approximately 10,000-14,000 plants per acre in double rows 14-18 inches (35.6 to 46 cm) apart on plastic mulched beds with 16-24 inches (40.6 to 61 cm) between plants in the row and with the beds spaced 5.0-6.5 feet ([…]) apart from their centers. A single row of peppers also can be planted on each bed (5,000-6,500 plants per acre or 12,355-16,062 plants per hectare).
Effects of the foliar applications on pepper yield were determined for two separate harvests using a once over harvest approach and normalized to the yield of the control plants. The average percentage change in yield for each treatment over the yield for the control plants is reported as pounds/acre (lbs/Ac) in Table 29.
Foliar treatment of Gm.RHPP (SEQ ID NO: 600) was applied as an exogenous spray at the first-bloom stage to increase yield in two pepper varieties. Foliar treatment of Gm.RHPP was applied using small scale plots designed to simulate commercial growing conditions for peppers (Capsicum) as described in Example 13. Foliar applications with the Gm.RHPP bioactive priming polypeptide were applied at the first flower stage, on two varieties of pepper, Red Knight (RK) and Hungarian Hot Wax (HHW). […] Effects of the foliar applications on pepper yield were determined for two separate harvests using a once over harvest approach and normalized to the yield of the control plants. The average percentage change in yield over the yield for the control plants is reported in Table 42, as the percent change per total weight (lbs/Ac) of peppers harvested. Average percent change in yield is reported for the 2 replicate harvests (trials) for the RK and HHW pepper varieties and then as a combined average for both varieties.
Small-scale plots were designed to simulate commercial growing conditions for jalapeno peppers. Peppers were grown for 12-weeks in a controlled growth room and then transplanted outside in 2 raised beds covered with black plastic mulch that had good water-holding characteristics and in soil having a pH of 5.8-6.6. Jalapeno pepper plants were spaced 14-16 inches (38 cm) apart with 16-24 inches (50 cm) between plants containing approximately 25 plants per row bed. Plants were grown using drip irrigation and fertilizer applied following grower guidelines throughout the growing season to provide optimum conditions for plant growth. The raised bed plots were designed to simulate the planting densities used by commercial growers that generally plant approximately plants per acre (5,000-6,500 plants per acre or 12,355-16,062 plants per hectare) in double rows 35.6-45.7 cm apart with the beds spaced 5.0-6.5 feet (1.52-1.98 meters) apart from their centers (Orzolek et al., “Agricultural Alternatives: Pepper Production.” University Park: Penn State Extension, 2010).

soybean = test: Foliar application to soybean, field yield trials; assay type: in vivo
[1] = Bt.4Q7Flg22 2.0 Fl. oz/Ac, Gm.RHPP 3.2 Fl. oz/Ac
[2] = foliar at V5, 100 μM, 6 US Midwest locations
[3] = Jalapeno pepper, foliar at early bloom, 100 μM, 3.2 fl oz/Ac
[4] = foliar 1 Fl. oz/Ac at first flower, vs water control, 2 harvests
[5] = foliar at R2, 7 US Midwest locations, use rate 0.33 Fl. oz/Ac
[6] = foliar at R2, average of AG3536 and AG3832, use rate RHPP 4.0, N-RAGE MAX 128 Fl. oz/Ac

GGIRAAPTGNER (Glycine max) [RHPP, Root Hair Promoting Peptide from Glycine max]
defoliation (Phakopsora pachyrhizi; R7, 150 mL/Ha): 96% | defoliation (Phakopsora pachyrhizi; R7, 300 mL/Ha): 70% | less Asian soybean rust leaf area damage than untreated control (Phakopsora pachyrhizi; two foliar applications from R1, 150 and 300 mL/Ha): 10.5-11.3% | Average squash fruit weight (grams) per plant (squash; foliar at first bloom, Bt.4Q7Flg22 16.7 μM 2 fl oz/Ac, Gm.RHPP 100 μM 3.2 fl oz/Ac, two harvests): 748.4 grams | Percentage Change in Fruit Weight Compared to Surfactant only control (squash; foliar at first bloom, Bt.4Q7Flg22 2 fl oz/Ac, Gm.RHPP 3.2 fl oz/Ac): +4.4% | change in fruit weight vs surfactant only control (squash; [1]): 4.4% | increase in weight of harvested squash fruit per plant (squash; [1]): 31.7 grams | average yield (corn; V5 corn, 6 locations combined): more than 209 Bu/Ac | yield increase vs surfactant control (corn; V5 corn, 6 locations combined): 3.52 Bu/Ac | Average Change in Bu/Ac compared to surfactant only control (corn; [2]): (+3.52; Bu/Ac | Average Yield Bu/Ac (corn; [2]): 209.67 Bu/Ac | win rate (corn; foliar at V5, 100 μM, vs surfactant only control): 64% | increase in yield vs control, combined average of both varieties (peppers (Capsicum); 1 Fl. oz/Ac): 67% | increase in yield vs control (peppers (Capsicum); 1 Fl. oz/Ac, HHW peppers): 46% | increase in yield vs control (peppers (Capsicum); 1 Fl. oz/Ac, RK peppers): 87% | Average Fruit Weight (grams) per Plant (peppers (Capsicum); [3]): 156.6 grams | Percentage Change in Fruit Weight Compared to Surfactant Control (peppers (Capsicum); [3]): +27% | increase in average fruit weight per plant vs surfactant only (peppers (Capsicum); Jalapeno, pre-bloom, Bt.4Q7Flg22 2 Fl. oz/Ac, Gm.RHPP 3.2 Fl. oz/Ac): 27% | Avg. Percent Change Yield Total Weight (lbs/Ac) Hungarian Hot Wax (peppers (Capsicum); [4]): +46% | Avg. Percent Change Yield Total Weight (lbs/Ac) Red Knight (peppers (Capsicum); [4]): +87% | Combined Avg. Percent Change Yield Total Number (lbs/Ac) RK and HHW (peppers (Capsicum); foliar 1 Fl. oz/Ac at first flower, vs water control, both varieties): +67% | yield advantage on top of foliar fertilizer (soybean; 8 fl oz/Ac with foliar fertilizer, 11 sites): 1 Bu/AC | yield increase over non-treated control (soybean; R2 foliar, 2 varieties, 7 locations, RHPP alone 4.0 Fl. oz/Ac): 1.26 Bu/Ac | yield advantage (soybean; R2 foliar, 4 Fl. oz/Ac, 11 sites): 0.31 Bu/Ac | average yield change vs non-treated control (soybean; R2 foliar, 11 locations, Flg22 polypeptides 0.33 Fl. oz/Ac, RHPP 4 Fl. oz/Ac): 1.2 Bu/Ac | yield increase compared to fertilizer alone (soybean; RHPP 1 Fl. oz/Ac (300 nM) with N-RAGE MAX, R2, variety AG3536, 5 locations): 1.4 Bu/Ac | Average Bu/Ac Increase compared to Control Variety 1 and 2 (soybean; [5]): +0.35 Bu/Ac | Average Total Yield Bu/Ac Variety 1 and 2 (soybean; [5]): 60.92 Bu/Ac | Average Total Yield Bu/Ac Variety 2 (soybean; foliar at R2, AG3536, 7 US Midwest locations, use rate 0.33 Fl. oz/Ac): 62.44 Bu/Ac | Average Bu/Ac Change compared to Control Variety 1 and 2 (soybean; [6]): +0.9 Bu/Ac | Average Total Yield Bu/Ac Variety 1 and 2 (soybean; [6]): 63.23 Bu/Ac | Average Total Yield Bu/Ac Variety 1 (soybean; foliar at R2, variety 1 (AG3536), 5 US Midwest locations, use rate RHPP 4.0, N-RAGE MAX 128 Fl. oz/Ac): 65.42 Bu/Ac | Average Total Yield Bu/Ac Variety 2 (soybean; foliar at R2, variety 2 (AG3832), 5 US Midwest locations, use rate RHPP 4.0, N-RAGE MAX 128 Fl. oz/Ac): 61.04 Bu/Ac
